Laboratory results reported in patent US20250319105A1, “NEUROACTIVE STEROID FOR THE TREATMENT OF ALZHEIMER'S DISEASE” (SAGE THERAPEUTICS, INC., priority 2021, published 2025).
“Also recorded” adds a separate entry of the source.

Key:
[1] = test system: participants with MCI or mild dementia due to AD; experiment: Open-label study: tests of learning and memory (PAL, PRM, VRM, Spatial Span); format: in vivo, human
Description: (§1) Additional objectives of the study were to assess the following: • PK profile of Compound 1 following administration of multiple doses as assessed by periodic PK sampling • Change from baseline on tests of executive function. • Change from baseline on tests of learning and memory. • Verbal Recognition Memory • Paired Associates Learning • Pattern Recognition Memory • Spatial Span • Change from baseline on tests of social cognition. • Emotion Recognition Task • Emotion Bias Task • Change from baseline on tests of psychomotor function. • Change from baseline on assessments of neuropsychiatric symptoms: • Change from baseline in performance on the Montreal Cognitive Assessment • Change from baseline in Clinical Global Impressions-Severity scores • Overall scores on Clinical Global Impressions-Improvement scales • Change from baseline in Amsterdam Instrumental Activities of Daily Living • Change from baseline in exploratory peripheral biomarkers • Amyloid PET Scan
The tests of Learning and Memory included Paired Associates Learning (PAL), which assesses how well the subject remembers the location of hidden objects; Pattern Recognition Memory (PRM), which assesses how well the subject remembers a pattern; and Verbal Recognition Memory […], which assesses how well the subject stores and retrieves verbal information.

[2] = test system: participants with MCI or mild dementia due to AD; experiment: Open-label study: tests of attention and psychomotor performance (RTI, PVT); format: in vivo, human; conditions: 3 mg once daily oral for 14 days
Description: as §1
The tests of Attention and Psychomotor Performance included Reaction Time (RTI), which assesses how fast the subject can respond to a stimulus (weekly measure); Psychomotor Vigilance Task (PVT), which assesses how fast can the subject respond to a stimulus (daily measure).

[3] = Open-label study: PK sampling, plasma concentrations; format: in vivo, human; conditions: Day 7 and Day 14; 3 mg once daily oral with a meal
Description: as §1

[4] = test system: participants with MCI or mild dementia due to AD; experiment: Open-label study: safety and tolerability (TEAEs, laboratory, vital signs, ECG); conditions: 3 mg once daily oral for 14 days
Description: The Study comprised a 2-week screening period, a 1-week baseline period, a 2-week open-label treatment period, and a 2-week follow-up period. […] During the 1-week pre-treatment baseline period, patients underwent repeated cognitive testing using a comprehensive battery of tests to establish a robust cognitive baseline across multiple domains of cognitive function.
The key inclusion criteria for the subjects were as follows: • Be between the ages of 50 and 80 years, inclusive, at Screening • Meet the following criteria for MCI or mild dementia due to AD at Screening: • A memory complaint reported by the participant or his/her study partner • A CDR score of 0.5 to 1.0 (inclusive) with a memory box score ≥0.5 • Essentially preserved activities of daily living, in the opinion of the investigator. • Brain MRI report, obtained within the 2 years preceding the Baseline Period, that is consistent with the diagnosis of AD-MCI with no clinically significant findings of non-AD pathology that could account for the observed cognitive impairment • Have a score of 15 to 24 (inclusive) on the MoCA at Screening • Have an estimated premorbid IQ≥85 (as assessed by the Test of Premorbid Functioning, performed at Screening
The Primary objective of the study was to assess (1) the incidence of Treatment-Emergent Adverse Event (TEAE).
The secondary objectives of the study were to assess: • the percentage of Participants With Clinically Significant Changes in Vital Sign Measurements, clinical laboratory analytes, electrocardiograms (ECGs), and responses on the Columbia-Suicide Severity Rating Scale (C-SSRS).

[5] = test system: participants with MCI or mild dementia due to AD; experiment: Open-label study: tests of executive functioning (MTT, OTS, SWM, DSST, 2-Back); format: in vivo, human
Description: as §1
The tests of Executive Functioning included (1) Multitasking Test (MTT), which assesses how well the subject manages conflicting information; (2) One Touch Stockings of Cambridge (OTS), which assesses how well the subject plans, holds onto, and manipulates information to solve a puzzle; (3) Spatial Working Memory (SWM), which assesses how well the subject develops and uses a strategy to find hidden information; (4) Digit Symbol Substitution Task (DSST), which assesses how efficiently can the subject complete a demanding task (daily measure); and (5) Two-Back Test (NBX), which asks is the symbol the same as that shown two symbols ago.

[6] = test system: participants with MCI or mild dementia due to AD; experiment: Open-label study: global cognition, Montreal Cognitive Assessment (MoCA); format: in vivo, human; conditions: 3 mg once daily oral for 14 days
Description: as §1

[7] = 3 mg once daily oral for 14 days, change from baseline, Clinic/Weekly

C[C@H](CC[C@](C)(O)C(F)(F)F)[C@H]1CC[C@H]2[C@@H]3CC=C4C[C@@](C)(O)CC[C@]4(C)[C@H]3CC[C@]12C [Compound 1]
Paired Associates Learning, Directional Trend [1, 7]: no change (or slight worsening); also recorded: Mixed
Pattern Recognition Memory, Directional Trend [1, 7]: numerical improvement
Spatial Span, Directional Trend [1, 7]: no change (or slight worsening); also recorded: Mixed
Verbal Recognition Memory, Directional Trend [1, 7]: Improvement
Performance on tests of learning and memory ([1]; Day 14 vs baseline, 3 mg once daily oral): additional signals suggesting improved performance
Changes in attention or psychomotor processing [2]: No changes
Reaction Time, Directional Trend ([2]; change from baseline, Clinic/Weekly): No Change
Psychomotor Vigilance Task, Directional Trend ([2]; change from baseline, Mobile/Daily): No Change
Plasma concentrations versus predicted range [3]: consistent with the predicted range
Clinically significant laboratory abnormalities ([4]; 26 enrolled subjects): No clinically significant laboratory abnormalities
Clinically significant vital sign or ECG abnormalities ([4]; 26 enrolled subjects): No clinically significant vital sign or ECG abnormalities
Number of TEAEs ([4]; 26 enrolled subjects): 8
Severe TEAEs, SAEs, or deaths ([4]; 26 enrolled subjects): No severe TEAEs, SAEs, or deaths
TEAEs resulting in study drug discontinuation or withdrawal from the study ([4]; 26 enrolled subjects): No TEAEs resulted in study drug discontinuation or withdrawal from the study
Mild TEAEs, n (%) ([4]; of 8 TEAEs): 4 (50%)
Moderate TEAEs, n (%) ([4]; of 8 TEAEs): 4 (50%)
Number of TEAEs considered related to study treatment ([4]; of 8 TEAEs): 6
Number of subjects who experienced TEAEs ([4]; of the 26 enrolled subjects): 7
2-Back Test, Directional Trend [5, 7]: numerical improvement
Multitasking, Directional Trend [5, 7]: numerical improvement
One Touch Stockings, Directional Trend [5, 7]: numerical improvement
Spatial working Memory, Directional Trend [5, 7]: numerical improvement
Digit Symbol Substitution, Directional Trend ([5]; 3 mg once daily oral for 14 days, change from baseline, Mobile/Daily): numerical improvement
Performance from baseline on all tests of executive functioning ([5]; Day 14, 3 mg once daily oral): improved performance
MoCA (Global), Directional Trend ([6]; change from baseline, Monthly): Improvement
MoCA score, mean CFB (change from baseline) ([6]; CFB at Day 28, n = 20): 2.3
MoCA score, mean ([6]; Day 28, n = 20, baseline mean 20.5): (22.8
Improvement in global cognition, assessed via MoCA ([6]; statistically significant): +2.3 pts
